Test results reported in patent publication US20080260838A1 (priority 2003, published 2008).

What was measured:
[1] = tested on: Rat pancreatic epithelial (ARIP) cells; test: Staurosporine-induced cell death in ARIP cells (Cell Titer-Glo); assay type: cell-based; conditions: GLP-1 up to 10 nM, 5 μM staurosporine […]
Description: Cell viability was evaluated using Cell Titer-Glo™ (Promega, Madison, Wis.).
The formulations were analyzed for their ability to inhibit staurosporine-induced cell death in ARIP cells.
All of the results shown are averages of triplicate runs.

[2] = tested on: Rat pancreatic epithelial (ARIP) cells; test: Apoptosis by FACS analysis using Annexin V staining; assay type: cell-based; conditions: 15 nM GLP-1, 1 μM staurosporine 4 hrs
Excerpt: Annexin V staining is a useful tool in detecting apoptotic cells and is well known to those of skill in the art. Binding of Annexin V to the cell membrane, allows for the analysis of changes in […] (PS) asymmetry before morphological changes associated with apoptosis occurred and before membrane integrity is lost.

β-cell mass = test: Effect on β-cell mass, cells treated at day 1, 3 and 5; assay type: cell-based; conditions: cells treated with GLP-1/FDKP versus untreated cells
DPP-IV = target: T1, DPP-IV (Rattus norvegicus, UniProt P14740); test: DPP-IV activity, cleavage of luminescent Gly-Pro substrate in bronchial lung lavage fluid; assay type: biochemical; conditions: aprotinin 1, 2, 3, 4 and 5 TIU/ml
T1 construct: from tissue; host or cells: rat bronchial lung lavage fluid
T1 sequence (P14740 whole entry): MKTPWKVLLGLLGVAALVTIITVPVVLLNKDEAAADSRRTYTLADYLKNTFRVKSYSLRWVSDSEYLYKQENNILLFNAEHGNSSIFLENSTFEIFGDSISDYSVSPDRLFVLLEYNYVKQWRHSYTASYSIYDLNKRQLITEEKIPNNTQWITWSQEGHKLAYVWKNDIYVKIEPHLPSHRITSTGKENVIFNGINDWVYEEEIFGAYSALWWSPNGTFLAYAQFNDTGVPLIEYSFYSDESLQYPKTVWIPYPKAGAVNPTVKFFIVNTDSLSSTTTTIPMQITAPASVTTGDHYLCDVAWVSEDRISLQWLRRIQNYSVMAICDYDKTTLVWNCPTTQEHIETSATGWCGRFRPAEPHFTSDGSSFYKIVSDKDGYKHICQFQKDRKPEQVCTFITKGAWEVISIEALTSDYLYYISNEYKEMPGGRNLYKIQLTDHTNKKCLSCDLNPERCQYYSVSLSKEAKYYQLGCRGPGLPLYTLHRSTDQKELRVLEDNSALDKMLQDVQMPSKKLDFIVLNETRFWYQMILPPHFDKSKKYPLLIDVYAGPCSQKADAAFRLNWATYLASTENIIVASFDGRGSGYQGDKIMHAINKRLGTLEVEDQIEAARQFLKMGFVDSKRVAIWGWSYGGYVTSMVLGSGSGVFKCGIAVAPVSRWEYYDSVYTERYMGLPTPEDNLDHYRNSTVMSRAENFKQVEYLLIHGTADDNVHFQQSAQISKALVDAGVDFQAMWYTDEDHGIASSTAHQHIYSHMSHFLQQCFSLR
Description: Aprotinin, a naturally occurring serine protease inhibitor, which is known in the art to inhibit protein degradation was added to the samples post collection at 1, 2, 3, 4 and 5 TIU/ml. DPP-IV activity was then measured by detecting the cleavage of a luminescent substrate containing the DPP-IV recognized Gly-Pro sequence. Bronchial lung lavage fluid was incubated with proluminescent substrate for 30 min and cleavage product was detected by luminescence.

Substance	percent of cell death [1]	inhibition of staurosporine induced apoptosis [2]	increase in β-cell mass (β-cell mass)	inhibition of DPP-IV activity (DPP-IV)
GLP-1	decrease in the percent of cell death	about 40%	up to 2 fold	
aprotinin				increase in inhibition of DPP-IV activity
